According to US8148385B2, “Substituted [1,2,3] triazolo[4,5-d]pyrimidine derivatives as ADP P2Y12 receptor antagonists” (Janssen Pharmaceutica N.V., priority 2006, dated 2012):

How the values were obtained:
[1] = biological target: T1, ADP P2Y12 (Homo sapiens, UniProt Q9H244); test: FLIPR calcium assay transducing Gi-coupled signaling to the Gq pathway (inhibition of calcium mobilization); assay type: cell-based; conditions: HEK 293 cells co-transfected with P2Y12 and Gqi5, ADP at EC60-70 dose
T1 construct: expressed in transfected cells
T1 sequence (Q9H244 whole entry): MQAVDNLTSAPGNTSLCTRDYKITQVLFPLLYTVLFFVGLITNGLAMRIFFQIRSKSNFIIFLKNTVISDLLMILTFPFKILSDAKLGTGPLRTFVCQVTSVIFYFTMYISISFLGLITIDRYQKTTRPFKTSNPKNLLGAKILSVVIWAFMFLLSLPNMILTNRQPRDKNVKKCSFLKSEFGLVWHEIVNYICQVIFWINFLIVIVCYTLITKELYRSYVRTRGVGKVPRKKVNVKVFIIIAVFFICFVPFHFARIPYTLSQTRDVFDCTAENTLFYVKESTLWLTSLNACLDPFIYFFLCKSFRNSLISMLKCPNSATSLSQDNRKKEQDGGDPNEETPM
Source text: A FLIPR Calcium Assay Transducing Gi-Coupled Signaling to the Gq Pathway
The ADP P2Y12 subtype is a Gi coupled GPCR, which mediates inhibition of adenylate cyclase leading to decreased cAMP while Gq proteins primarily activate phospholipase C, which stimulates inositol-1,4,5-triphosphate (IP3) formation and a subsequent increase in intracellular Ca^2+ concentration, which can be easily measured by FLIPR. Prior to the development of a method to convert a Gi coupled GPCR signaling to a Gq coupled GPCR signaling, a significant barrier existed for the functional testing and screening of Gi coupled GPCRs. One popular method, GTPγS migration, is slow, produces a small signal and generates radioactive waste. The discovery that a small switch in the amino acid sequence in the Gi protein could convert it to a protein mediating a Gq coupled response has led to the development of robust, high throughput assays for this valuable receptor subtype.
The FLIPR-based HTS assay transducing the Gi signaling to the Gq pathway is described below.
pcDNA3hygroP2Y12 containing a hygromycin resistance gene and pLEC1-Gqi5-HA containing a neomycin resistance gene (licensed from Molecular Devices, Sunnyvale, Calif.) were co-transfected into Human embryonic kidney (HEK) 293 cells with SuperFect (Qiagen, Valencia, Calif.). Cell clones were selected in the presence of 600 μg/ml hygromycin B (Life Technologies, Carlsbad, Calif.) and 1 mg/ml of G418 (Mediatech, Herndon, Va.). Drug resistant colonies were picked and screened by FLIPR and the gene expression was further confirmed by RT-PCR. Positive clones were maintained in growth medium (DMEM supplemented with 10% FBS, 1×p/s) containing 400 μg/ml of G418 and 200 μg/ml of hygromycin.
The day before the assay, cells are seeded in clear, flat-bottom black-wall, tissue culture treated polystyrene 96- or 384-well plates and incubated at 37° C., 5% CO2. 50 μl of complete dye loading solution (FLIPR Calcium Assay Kit, Molecular Devices) was added to each well containing 100 μl of culture media. The cells were incubated for at least 30 min at 37° C., in 5% CO2 before initiating the assay on the FLIPR. The agonist effect of ADP was tested and EC50 was determined prior to compound testing. The EC60-70 dose was used.
The antagonist compounds were prepared at 4× and the agonists were diluted at 5× the concentration desired in the test wells, and then aliquoted into the sample plates. The sample plates and the cell plate were placed in the FLIPR assay chamber. A first addition (50 μl) was made at the start of reading and a second addition (50 μl) was made after 5 min of reading. Raw fluorescence data was exported for each well and tabulated versus time within an ASCII file. Data was then imported into Excel and the peak response over the basal level was determined. The percent inhibition for each compound was calculated by the change in fluorescent density as a % inhibition of the control ADP response to obtain an IC50, as shown in Table 1 (wherein N/A means Not Applicable).

[2] = biological target: T2, P2Y12 receptor (Homo sapiens, UniProt Q9H244); test: Whole cell receptor binding assay for 2-MeS[3H]-ADP; conditions: whole HEK 293 cells transfected with P2Y12; 2-MeS[3H]-ADP 3 nM; 30 min at 37° C.; read-out: Inhibition of Receptor Binding IC50
T2 construct: expressed in transfected cells
T2 sequence (Q9H244 whole entry): as above
Experimental: A whole cell-binding assay for 2-MeS [^3H]-ADP (Custom synthesized by Amersham BioScience, Piscataway, N.J.) to the P2Y12 receptor was performed.
A P2Y12 cDNA containing hygromycin resistant gene was transfected in HEK 293 cells. A stable cell line was obtained by a cloning selection method. The cells were cultured in DMEM supplemented with 10% FBS and 1× of p/s.
On the day of the assay, the cells were harvested and resuspended in 0.25% BSA-DMEM and adjusted to a cell concentration of 1.6×10^6/ml. […] The reaction was then incubated for 30 min at 37° C. and stopped by adding cold DMEM. […] The plates were dyed in a 37° C. oven for 1-2 hours and 50 μl of MicroScint-20 (PerkinElmer) was added to each well. The radioactivity was measured using a TOPCOUNT beta counter (Packard).

[3] = tested on: washed platelets; test: In vitro platelet aggregation; assay type: cell-based; conditions: Homo sapiens, washed platelets from healthy volunteers, agonist (ADP) at 60-70% aggregation, % inhibition of control ADP response
Experimental: Platelet aggregation studies were performed according to a published method (Bednar, B., Condra, C., Gould, R. J., and Connolly, T. M., Throm. Res., 77:453-463 (1995). Platelet-rich plasma (PRP) concentrates prepared from healthy volunteers who were aspirin free for at least 7 days by venipuncture using ACD-A as anticoagulant was purchased from Biological Specialties, Inc. (Colmar, Pa.). PRP was centrifuged at 730 g for 15 min. The platelet pellet was washed twice in CGS buffer (13 mM sodium citrate, 30 mM glucose, 120 mM NaCl, pH 6.5) containing 1 μ/ml apyrase (grade V, Sigma-Aldrich, St. Louis, Mo.), 1 mM EGTA, and resuspended in Tyrode's buffer (140 mM NaCl, 2.7 mM KCl, 12 mM NaHCO3, 0.76 mM Na2HPO4, 5.5 mM dextrose, 5.0 mM Hepes, 0.2% BSA, pH 7.4). The platelets were diluted to 3×10^8 platelets/ml and kept >45 min at 37° C. before use. 105 μl of washed platelets, 2 mM CaCl2 and […] of fibrinogen were added to a 96-well microliter plate.
Platelet aggregation was initiated by the addition of serial concentrations of ADP (BioData Corp. Horsham, Pa.). Buffer was added to one set of control wells. The assay plate was stirred constantly and intermittently placed in a microplate reader (Softmax, Molecular Devices, Menlo Park, Calif.) to read optical density (650 nm) at 0 and 5 minutes after the addition of the compound solutions. Aggregation was calculated as the decrease in optical density between the time 0- and 5-min measurements and expressed as % of aggregation. For the inhibition assay, platelet aggregation was conducted as described above except for compound additions. Test compounds were prepared in 100% DMSO and stored.
On the day of the assay, test compounds were diluted in the buffer containing 3% of DMSO as a 10× working solution. 15 μl of compound solutions were added to 105 μl of platelets 5 min prior to the addition of CaCl2 and fibrinogen.

| Compound | IC50 [1] [µM] | IC50 [2] [µM] | IC50 [3] [µM] |
| --- | --- | --- | --- |
| CCCSc1nc(NC[C@@H]2CCCO2)c2nnn([C@@H]3C=C[C@H](O)[C@@H](O)[C@H]3O)c2n1 [Cpd 3, (1S,2R,3S,6R)-6-(5-propylsulfanyl-7-{[(2S)-tetrahydro-furan-2-ylmethyl]-amino}-[1,2,3]triazolo[4,5-d]pyrimidin-3-yl)-cyclohex-4-ene-1,2,3-triol] | > 30 | 4.75 | – |
| CCCSc1nc(NCCc2cccs2)c2nnn([C@@H]3C=C[C@H](O)[C@@H](O)[C@H]3O)c2n1 [Cpd 7, (1S,2R,3S,4R)-6-[5-propylsulfanyl-7-(2-thiophen-2-yl-ethylamino)-[1,2,3]triazolo[4,5-d]pyrimidin-3-yl]-cyclohex-4-ene-1,2,3-triol] | 14.7 | 2.27 | – |
| CCCSc1nc(N[C@@H]2C[C@H]2c2ccccc2)c2nnn(C3[C@@H](O)[C@@H](O)C(OCCO)[C@@H](O)[C@H]3O)c2n1 (mixture of isomers) [Cpd 12, (1R,2R,4S,5S)-3-(2-hydroxy-ethoxy)-6-{7-[(1RS,2SR)-2-phenyl-cyclopropylamino]-5-propylsulfanyl-[1,2,3]triazolo[4,5-d]pyrimidin-3-yl}-cyclohexane-1,2,4,5-tetraol] | 6.9 | 2.2 | – |
| CCCSc1nc(NCc2ccco2)c2nnn([C@@H]3C=C[C@H](O)[C@@H](O)[C@H]3O)c2n1 [Cpd 4, (1S,2R,3S,4R)-6-{7-[(furan-2-ylmethyl)-amino]-5-propylsulfanyl-[1,2,3]triazolo[4,5-d]pyrimidin-3-yl}-cyclohex-4-ene-1,2,3-triol] | > 30 | – | – |
| CCCSc1nc(NCc2cccn2C)c2nnn([C@@H]3C=C[C@H](O)[C@@H](O)[C@H]3O)c2n1 [Cpd 8, (1S,2R,3S,6R)-6-{7-[(1-methyl-1H-pyrrol-2-ylmethyl)-amino]-5-propylsulfanyl-[1,2,3]triazolo[4,5-d]pyrimidin-3-yl}-cyclohex-4-ene-1,2,3-triol] | > 30 | – | – |
| CCCSc1nc(N[C@@H]2C[C@H]2c2ccccc2)c2nnn([C@@H]3C=C[C@H](O)[C@H]4OC(C)(C)O[C@H]43)c2n1 (mixture of isomers) [Cpd 10, (3aR,4S,7R,7aS)-2,2-dimethyl-7-{7-[(1RS,2SR)-2-phenyl-cyclopropylamino]-5-propylsulfanyl-[1,2,3]triazolo[4,5-d]pyrimidin-3-yl}-3a,4,7,7a-tetrahydro-benzo[1,3]dioxol-4-ol] | > 30 | – | – |
| CCCSc1nc(NC[C@H]2CCCO2)c2nnn([C@@H]3C=C[C@H](O)[C@@H](O)[C@H]3O)c2n1 [Cpd 2, (1S,2R,3S,6R)-6-(5-propylsulfanyl-7-{[(2R)-tetrahydro-furan-2-ylmethyl]-amino}-[1,2,3]triazolo[4,5-d]pyrimidin-3-yl)-cyclohex-4-ene-1,2,3-triol] | > 30 | – | – |
| CCCSc1nc(NCC2CCCN2CC)c2nnn([C@@H]3C=C[C@H](O)[C@@H](O)[C@H]3O)c2n1 (stereo partly drawn) [Cpd 6, (1S,2R,3S,4R)-6-{7-[(1-ethyl-pyrrolidin-2-ylmethyl)-amino]-5-propylsulfanyl-[1,2,3]triazolo[4,5-d]pyrimidin-3-yl}-cyclohex-4-ene-1,2,3-triol] | > 30 | – | – |

Now from value to compound, other results behind:

| IC50 [1] [µM] | IC50 [2] [µM] | Compound | IC50 [3] [µM] |
| --- | --- | --- | --- |
| > 30 | – | CCCSc1nc(NCc2ccco2)c2nnn([C@@H]3CC[C@H](O)[C@@H](O)[C@H]3O)c2n1 [Cpd 18, (1S,2R,3S,4R)-4-{7-[(furan-2-ylmethyl)-amino]-5-propylsulfanyl-[1,2,3]triazolo[4,5-d]pyrimidin-3-yl}-cyclohexane-1,2,3-triol] | – |
| > 30 | – | CCCSc1nc(N[C@@H]2CCN(Cc3ccccc3)C2)c2nnn([C@@H]3CC[C@H](O)[C@@H](O)[C@H]3O)c2n1 [Cpd 22, (1S,2R,3S,4R)-4-{7-[(3R)-1-benzyl-pyrrolidin-3-ylamino]-5-propylsulfanyl-[1,2,3]triazolo[4,5-d]pyrimidin-3-yl}-cyclohexane-1,2,3-triol] | – |
| > 30 | – | CCCSc1nc(NC[C@H]2CCCO2)c2nnn([C@@H]3CC[C@H](O)[C@@H](O)[C@H]3O)c2n1 [Cpd 17, (1S,2R,3S,4R)-4-(5-propylsulfanyl-7-{[(2R)-tetrahydro-furan-2-ylmethyl]-amino}-[1,2,3]triazolo[4,5-d]pyrimidin-3-yl)-cyclohexane-1,2,3-triol] | > 30 |
| > 30 | 8.56 | CCCSc1nc(N[C@@H]2C[C@H]2c2ccccc2)c2nnn([C@@H]3C=C[C@H](OCCO)[C@@H](O)[C@H]3O)c2n1 (mixture of isomers) [Cpd 13, (1S,2S,3S,6R)-3-(2-hydroxy-ethoxy)-6-{7-[(1RS,2SR)-2-phenyl-cyclopropylamino]-5-propylsulfanyl-[1,2,3]triazolo[4,5-d]pyrimidin-3-yl}-cyclohex-4-ene-1,2-diol] | – |
| 2.93 | – | CCCCNc1nc(SCCC)nc2c1nnn2[C@@H]1CC[C@H](O)[C@@H](O)[C@H]1O [Cpd 19, (1S,2R,3S,4R)-4-(7-butylamino-5-propylsulfanyl-[1,2,3]triazolo[4,5-d]pyrimidin-3-yl)-cyclohexane-1,2,3-triol] | – |
| > 30 | – | CCCSc1nc(NCCc2cccs2)c2nnn([C@@H]3CC[C@H](O)[C@@H](O)[C@H]3O)c2n1 [Cpd 20, (1S,2R,3S,4R)-4-[5-propylsulfanyl-7-(2-thiophen-2-yl-ethylamino)-[1,2,3]triazolo[4,5-d]pyrimidin-3-yl]-cyclohexane-1,2,3-triol] | – |
| > 30 | – | CCCSc1nc(NC[C@@H]2CCCO2)c2nnn([C@@H]3CC[C@H](O)[C@@H](O)[C@H]3O)c2n1 [Cpd 16, (1S,2R,3S,4R)-4-(5-propylsulfanyl-7-{[(2S)-tetrahydro-furan-2-ylmethyl]-amino}-[1,2,3]triazolo[4,5-d]pyrimidin-3-yl)-cyclohexane-1,2,3-triol] | – |
| 2.63 | 6.6 | CCCSc1nc(N[C@@H]2C[C@H]2c2ccccc2)c2nnn([C@@H]3CC[C@H](OCCO)[C@@H](O)[C@H]3O)c2n1 (mixture of isomers) [Cpd 15, (1S,2S,3S,6R)-3-(2-hydroxy-ethoxy)-6-{7-[(1RS,2SR)-2-phenyl-cyclopropylamino]-5-propylsulfanyl-[1,2,3]triazolo[4,5-d]pyrimidin-3-yl}-cyclohexane-1,2-diol] | – |
